Test results taken from publication PMC7933985 (The Journal of General Physiology, 2021).
Residue numbers refer to the chain shown, from its start. Read-outs that look alike come from different tables or passages of the source.

Columns and labels:
UNC-8d [1] = molecular target: T1, UNC-8d (Caenorhabditis elegans, UniProt Q21974, G387E); assay: Two-electrode voltage clamp of oocytes coexpressing MEC-2 and UNC-8d; assay type: cell-based, C. elegans; conditions: for effect on UNC-8d current: 30 µM; for IC50: control saline (divalent-containing solution)
T1 sequence (Q21974 1-737 isoform Q21974-4 G347E): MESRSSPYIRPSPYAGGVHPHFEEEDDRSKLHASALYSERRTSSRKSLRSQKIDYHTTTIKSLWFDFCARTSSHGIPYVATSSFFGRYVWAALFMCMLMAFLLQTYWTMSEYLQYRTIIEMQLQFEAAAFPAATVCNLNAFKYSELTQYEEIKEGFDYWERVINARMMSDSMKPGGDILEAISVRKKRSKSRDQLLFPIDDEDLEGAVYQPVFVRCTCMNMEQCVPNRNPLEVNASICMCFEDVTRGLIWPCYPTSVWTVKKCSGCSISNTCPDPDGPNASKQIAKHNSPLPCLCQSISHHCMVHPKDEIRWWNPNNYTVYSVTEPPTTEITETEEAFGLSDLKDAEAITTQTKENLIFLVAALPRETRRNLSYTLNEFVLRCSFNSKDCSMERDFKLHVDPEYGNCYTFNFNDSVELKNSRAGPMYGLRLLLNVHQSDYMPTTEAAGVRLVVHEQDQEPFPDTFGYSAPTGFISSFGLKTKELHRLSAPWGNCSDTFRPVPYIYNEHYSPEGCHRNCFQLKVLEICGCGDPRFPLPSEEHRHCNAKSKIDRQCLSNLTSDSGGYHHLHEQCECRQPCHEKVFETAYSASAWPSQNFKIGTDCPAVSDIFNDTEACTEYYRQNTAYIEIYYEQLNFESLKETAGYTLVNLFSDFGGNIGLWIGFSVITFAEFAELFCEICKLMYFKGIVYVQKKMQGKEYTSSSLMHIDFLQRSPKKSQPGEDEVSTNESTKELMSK

DEGT-1d alone = assay: Two-electrode voltage clamp of oocytes expressing DEGT-1d alone; assay type: cell-based, C. elegans; conditions: 300 µM amiloride, −85 mV, DEGT-1 alone without MEC-2
DEGT-1d = assay: Two-electrode voltage clamp of oocytes coexpressing MEC-2 and DEGT-1d; assay type: cell-based, C. elegans; conditions: for ΔIdrug, change in current compared with uninjected oocytes: −85 mV, coexpressed with MEC-2; for effect on DEGT-1d current: 30 µM
MEC-4d = molecular target: T2, MEC-4d (Caenorhabditis elegans, UniProt P24612, A713T); assay: Two-electrode voltage clamp of oocytes coexpressing MEC-2 and MEC-4d; assay type: cell-based, C. elegans; conditions: for effect on MEC-4d current: 30 µM
T2 sequence (P24612 1-768 A713T): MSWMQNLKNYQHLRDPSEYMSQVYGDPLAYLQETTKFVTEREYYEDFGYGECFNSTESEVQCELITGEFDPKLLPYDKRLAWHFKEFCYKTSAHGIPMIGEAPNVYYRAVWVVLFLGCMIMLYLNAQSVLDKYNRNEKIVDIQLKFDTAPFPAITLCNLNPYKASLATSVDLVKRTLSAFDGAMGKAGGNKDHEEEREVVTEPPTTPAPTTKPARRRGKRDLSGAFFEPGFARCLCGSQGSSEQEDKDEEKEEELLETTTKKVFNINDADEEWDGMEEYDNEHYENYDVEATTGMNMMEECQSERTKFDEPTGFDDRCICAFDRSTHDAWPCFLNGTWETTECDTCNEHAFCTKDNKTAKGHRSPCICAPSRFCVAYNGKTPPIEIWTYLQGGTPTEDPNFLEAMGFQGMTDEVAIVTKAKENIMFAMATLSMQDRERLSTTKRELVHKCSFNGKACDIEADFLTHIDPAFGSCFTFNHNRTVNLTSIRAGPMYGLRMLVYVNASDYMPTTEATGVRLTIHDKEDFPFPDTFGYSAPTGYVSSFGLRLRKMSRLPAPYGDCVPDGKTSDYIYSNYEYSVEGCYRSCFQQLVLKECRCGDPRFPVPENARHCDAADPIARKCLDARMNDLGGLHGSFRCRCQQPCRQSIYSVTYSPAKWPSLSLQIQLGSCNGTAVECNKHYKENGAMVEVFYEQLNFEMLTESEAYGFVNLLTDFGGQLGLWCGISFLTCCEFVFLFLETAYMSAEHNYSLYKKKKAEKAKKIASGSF

MEC-2 alone = molecular target: T3, MEC-2 alone (Caenorhabditis elegans, UniProt Q27433); assay: Two-electrode voltage clamp of oocytes expressing MEC-2 alone; assay type: cell-based, C. elegans; conditions: 300 µM amiloride, −85 mV
T3 sequence (Q27433 1-481): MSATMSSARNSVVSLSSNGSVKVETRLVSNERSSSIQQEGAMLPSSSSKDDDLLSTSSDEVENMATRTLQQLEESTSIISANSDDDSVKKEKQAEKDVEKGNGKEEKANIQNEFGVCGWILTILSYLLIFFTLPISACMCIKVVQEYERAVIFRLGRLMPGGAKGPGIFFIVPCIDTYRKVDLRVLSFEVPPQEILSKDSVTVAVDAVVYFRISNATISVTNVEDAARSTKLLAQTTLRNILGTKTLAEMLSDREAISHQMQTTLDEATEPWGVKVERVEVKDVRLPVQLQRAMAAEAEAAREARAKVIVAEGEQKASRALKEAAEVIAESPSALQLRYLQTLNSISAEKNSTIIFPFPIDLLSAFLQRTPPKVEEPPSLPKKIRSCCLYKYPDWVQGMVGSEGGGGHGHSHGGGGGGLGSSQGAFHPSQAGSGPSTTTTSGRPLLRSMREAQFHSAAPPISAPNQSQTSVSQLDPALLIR

uninjected oocytes = assay: Two-electrode voltage clamp of uninjected; assay type: cell-based, Xenopus laevis; conditions: 30 µM
MEC-4d(E704K) = molecular target: T4, MEC-4d(E704K) (Caenorhabditis elegans, UniProt P24612, A713T/E704K); assay: cell-based; set-up: species or system C. elegans; conditions: for drug-induced change in current (Idrug) compared with absence of drug: 700 µM drug, −85 mV
T4 sequence (P24612 1-768 E704K/A713T): T2 sequence (P24612 1-768 A713T) with E704K

rASIC1a = conditions: allosteric effect; ref Lynagh et al., 2017; cited from earlier work
UNC-8d [2] = molecular target: T1, UNC-8d; conditions: −100 mV, ref Miller-Fleming et al., 2016, cited from earlier work

## N=C(N)NC(=O)c1nc(Cl)c(N)nc1N [Amiloride, amiloride]
UNC-8d [1]
  effect on UNC-8d current: inhibited
DEGT-1d alone
  ΔIdrug, change in current compared with uninjected oocytes: 0.0288 µA
DEGT-1d; 100 µM drug
  ΔIdrug, change in current compared with uninjected oocytes: 0.111 µA
DEGT-1d; 300 µM drug
  ΔIdrug, change in current compared with uninjected oocytes: 0.0623 µA
MEC-4d
  effect on MEC-4d current: inhibited
MEC-2 alone
  ΔIdrug, change in current compared with uninjected oocytes: −0.0067 µA

## CC(C(=O)O)c1ccc(-c2ccccc2)c(F)c1 (stereo not shown) [Flurbiprofen, flurbiprofen]
UNC-8d [1]
  effect on UNC-8d current: partially inhibit
DEGT-1d
  effect on DEGT-1d current: partially inhibit

## O=C(O)Cc1ccccc1Nc1c(Cl)cccc1Cl [Diclofenac, diclofenac]
UNC-8d [1]
  effect on UNC-8d current: partially inhibit

## CCN(c1nc(N)c(C(=O)NC(=N)N)nc1Cl)C(C)C [EIPA, 5-(N-ethyl-N-isopropyl)amiloride]
Uninjected oocytes
  effect on current in control (uninjected) oocytes: no detectable effect
UNC-8d [1]
  effect on UNC-8d current: inhibited
DEGT-1d
  effect on DEGT-1d current: no detectable effect
MEC-4d
  IC50: 3.06 ± 0.6 µM
  voltage dependence of apparent affinity (block): insensitive to voltage
  effect on MEC-4d current: inhibited

## CC(C)Cc1ccc([C@H](C)C(=O)O)cc1 [S-Ibu, S-ibuprofen]
MEC-4d; 30 µM ibuprofen isomer
  difference in drug-sensitive current compared with uninjected oocytes (ΔIdrug): 4.7 µA

## CC(=O)Oc1ccccc1C(=O)O [Aspirin, aspirin]
MEC-4d(E704K)
  EC50: 179 ± 56 µM
  drug-induced change in current (Idrug) compared with absence of drug: 6.53 µA
MEC-4d
  EC50: 79.9 ± 3.7 µM
  voltage dependence of potentiation (EC50 vs voltage): Neither drug showed evidence of voltage dependence

## O=C(O)c1ccccc1O [Salicylic acid, salicylic acid]
DEGT-1d
  effect on DEGT-1d current: partially inhibit

## N=C(N)c1ccccc1 [Benzamidine, benzamidine]
UNC-8d [1]
  effect on UNC-8d current: inhibited

## CC(C)Cc1ccc(C(C)C(=O)O)cc1 (stereo not shown) [Ibuprofen, ibuprofen]
Uninjected oocytes
  effect on current in control (uninjected) oocytes: little if any effect
MEC-4d(E704K)
  drug-induced change in current (Idrug) compared with absence of drug: 10.7 µA
UNC-8d [1]
  effect on UNC-8d current: modestly inhibits
rASIC1a
  effect on rASIC1a: inhibited
DEGT-1d
  effect on DEGT-1d current: modestly inhibits
DEGT-1d; 100 µM drug
  ΔIdrug, change in current compared with uninjected oocytes: 0.19 µA
DEGT-1d; 300 µM drug
  ΔIdrug, change in current compared with uninjected oocytes: 0.322 µA
MEC-4d
  voltage dependence of potentiation (EC50 vs voltage): Neither drug showed evidence of voltage dependence
  effect on MEC-4d current: seems to potentiate

## NC(=NCc1ccccc1)NC(=O)c1nc(Cl)c(N)nc1N [Benzamil, benzamil]
UNC-8d [1]
  effect on UNC-8d current: inhibited
UNC-8d [1]; IC50, −60 mV
  IC50: 14.8 ± 1.6 µM
UNC-8d [1]; IC50, −100 mV
  IC50: 15.1 µM
UNC-8d [1]; voltages between −100 and −20 mV
  voltage dependence of block: not voltage-dependent
UNC-8d [2]; divalent-containing solution
  IC50: 47 µM
UNC-8d [2]; divalent-free solution
  IC50: 119 µM
MEC-4d
  effect on MEC-4d current: inhibited

## NC(=Nc1ccccc1)NC(=O)c1nc(Cl)c(N)nc1N [Phenamil, phenamil]
UNC-8d [1]
  effect on UNC-8d current: inhibited
MEC-4d
  effect on MEC-4d current: inhibited
